Molecular target: T1, Dopamine beta hydroxylase (Homo sapiens, UniProt P09172)
T1 construct: 125 μl of plasma; tissue Instituto Português do Sangue Transplantação; host or cells: human plasma from healthy donors
T1 sequence (P09172 40-617 limits assumed): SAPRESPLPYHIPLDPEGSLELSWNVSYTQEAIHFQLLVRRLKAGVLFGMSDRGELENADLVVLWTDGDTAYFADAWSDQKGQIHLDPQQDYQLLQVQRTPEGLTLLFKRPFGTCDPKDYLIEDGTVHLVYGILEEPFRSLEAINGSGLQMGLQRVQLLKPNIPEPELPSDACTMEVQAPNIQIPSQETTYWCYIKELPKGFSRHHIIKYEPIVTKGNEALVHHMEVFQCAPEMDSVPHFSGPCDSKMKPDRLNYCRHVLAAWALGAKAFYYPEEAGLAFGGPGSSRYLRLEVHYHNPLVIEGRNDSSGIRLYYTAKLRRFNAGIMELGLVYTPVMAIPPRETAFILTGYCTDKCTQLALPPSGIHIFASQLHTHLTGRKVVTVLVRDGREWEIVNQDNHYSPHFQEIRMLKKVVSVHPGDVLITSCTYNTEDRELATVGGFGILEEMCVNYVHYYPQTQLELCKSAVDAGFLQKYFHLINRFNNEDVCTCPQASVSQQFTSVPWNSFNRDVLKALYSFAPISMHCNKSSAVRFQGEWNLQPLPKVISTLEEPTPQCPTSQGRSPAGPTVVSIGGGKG
Assay: Dopamine beta hydroxylase activity in human plasma
Assay type: biochemical
Conditions: for Plasma (0.01 μM), activity in % of control: inhibitor 0.01 μM; for Plasma (0.1 μM), activity in % of control: inhibitor 0.1 μM
In short: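 Octopamine production from tyramine over 45 min at 37° C, measured photometrically at 330 nm after SCX extraction and periodate oxidation against an octopamine standard curve, indicates plasma DβH activity. Compounds tested at final 10, 100 and 1000 nM in human plasma, pH 5.0 cofactor buffer, 10 min preincubation; results as % of control.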

Cn1c(CC(=O)N2CCOCC2)c2n(c1=S)C[C@H](c1c(F)ccc(F)c1F)C2 [Example 411, (S)-2-(2-methyl-3-thioxo-6-(2,3,6-trifluorophenyl)-2,5,6,7-tetrahydro-3H-pyrrolo[1,2-c]imidazol-1-yl)-1-morpholinoethan-1-one]
Plasma (0.01 μM), activity in % of control: 104.2 % of control
Plasma (0.1 μM), activity in % of control: 78.6 % of control

O=C(Cc1[nH]c(=S)n2c1C[C@H](c1c(F)c(F)cc(F)c1F)C2)N[C@H]1CCOC1 [Example 369, 2-((R)-6-(2,3,5,6-tetrafluorophenyl)-3-thioxo-2,5,6,7-tetrahydro-3H-pyrrolo[1,2-c]imidazol-1-yl)-N—((S)-tetrahydrofuran-3-yl)acetamide]
Plasma (0.01 μM), activity in % of control: 86.0 % of control
Plasma (0.1 μM), activity in % of control: 60.1 % of control

CN(C(=O)Cc1c2n(c(=S)n1C)C[C@@]1(c3cc(Cl)ccc3F)C[C@@H]21)C1CCOC1 (stereo partly drawn) [Example 441, 2-((5aS,6aR)-5a-(5-chloro-2-fluorophenyl)-2-methyl-3-thioxo-2,3,5,5a,6,6a-hexahydrocyclopropa[3,4]pyrrolo[1,2-c]imidazol-1-yl)-N-methyl-N-(tetrahydrofuran-3-yl)acetamide]
Plasma (0.01 μM), activity in % of control: 72.8 % of control
Plasma (0.1 μM), activity in % of control: 37.4 % of control

Cl.Cn1c(CC(=O)N2CCNCC2)c2n(c1=S)C[C@@]1(c3cc(Br)ccc3F)C[C@@H]21 [Example 321, 2-((5aS,6aR)-5a-(5-bromo-2-fluorophenyl)-2-methyl-3-thioxo-2,3,5,5a,6,6a-hexahydrocyclopropa[3,4]pyrrolo[1,2-c]imidazol-1-yl)-1-(piperazin-1-yl)ethan-1-one Hydrochloride]
Plasma (0.01 μM), activity in % of control: 89.7 % of control
Plasma (0.1 μM), activity in % of control: 13.3 % of control

CN1CC(NC(=O)Cc2c3n(c(=S)n2C)C[C@@H](c2c(F)ccc(F)c2F)C3)CCC1=O (stereo partly drawn) [Example 371, 2-((R)-2-methyl-3-thioxo-6-(2,3,6-trifluorophenyl)-2,5,6,7-tetrahydro-3H-pyrrolo[1,2-c]imidazol-1-yl)-N-(1-methyl-6-oxopiperidin-3-yl)acetamide]
Plasma (0.01 μM), activity in % of control: 79.0 % of control
Plasma (0.1 μM), activity in % of control: 17.7 % of control

O=C(Cc1[nH]c(=S)n2c1C[C@H](c1c(F)ccc(Br)c1F)C2)N1CCOCC1 [Example 141, (R)-2-(6-(3-bromo-2,6-difluorophenyl)-3-thioxo-2,5,6,7-tetrahydro-3H-pyrrolo[1,2-c]imidazol-1-yl)-1-morpholinoethan-1-one]
Plasma (0.01 μM), activity in % of control: 93.2 % of control
Plasma (0.1 μM), activity in % of control: 76.1 % of control

O=C(Cc1[nH]c(=S)n2c1C[C@@H](c1c(F)ccc(Cl)c1F)C2)N[C@@H]1CCCOC1 [Example 401, 2-((S)-6-(3-chloro-2,6-difluorophenyl)-3-thioxo-2,5,6,7-tetrahydro-3H-pyrrolo[1,2-c]imidazol-1-yl)-N—((R)-tetrahydro-2H-pyran-3-yl)acetamide]
Plasma (0.01 μM), activity in % of control: 66.5 % of control
Plasma (0.1 μM), activity in % of control: 35.2 % of control

CN(C(=O)Cc1c2n(c(=S)n1C)C[C@@]1(c3cc(Cl)ccc3F)C[C@@H]21)[C@@H]1CCOC1 [Example 468, 2-((5aS,6aR)-5a-(5-chloro-2-fluorophenyl)-2-methyl-3-thioxo-2,3,5,5a,6,6a-hexahydrocyclopropa[3,4]pyrrolo[1,2-c]imidazol-1-yl)-N-methyl-N—((R)-tetrahydrofuran-3-yl)acetamide]
Plasma (0.01 μM), activity in % of control: 65.8 % of control
Plasma (0.1 μM), activity in % of control: 13.1 % of control

From patent US11434242B2, “Dopamine-b-hydroxylase inhibitors” (BIAL-PORTELA & Cª, S.A., priority 2017, dated 2022)
